Experimental data: PMC10296195, “C-Methylated Spermidine Derivatives: Convenient Syntheses and Antizyme-Related Effects” (Biomolecules, 2023)
Read-outs that look alike come from different tables or passages of the source.

Biological target: T1, mOAZ1 (Mus musculus, UniProt P54369)
T1 construct: gene Oaz1; full-length mouse antizyme 1 (+1 frameshift product); expressed in E. coli Rosetta (DE3) from pET-15b-2c-His-mAZ (XhoI site)
Experiment: isothermal titration calorimetry
Assay type: binding
Excerpt: isothermal titration calorimetry on mOAZ1

T1 sequence (P54369 2-227): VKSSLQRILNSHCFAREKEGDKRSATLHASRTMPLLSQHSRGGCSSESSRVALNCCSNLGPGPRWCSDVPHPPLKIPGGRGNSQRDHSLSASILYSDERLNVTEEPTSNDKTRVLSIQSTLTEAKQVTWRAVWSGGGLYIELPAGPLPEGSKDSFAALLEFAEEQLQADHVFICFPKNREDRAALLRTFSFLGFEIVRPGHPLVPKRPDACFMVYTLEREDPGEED

Kd (read-out: Ka ^b, M^-1 (converted)): 370 nM
Kd (read-out: Kd ^c): 370 nM
Compound: NCCCNCCCCNCCCN [Spm]
